The source of these data is patent US7595398B2, “N-(5-membered aromatic ring)-amido anti-viral compounds” (SmithKline Beecham Corporation, priority 2005, dated 2009).

By inhibition is commonly meant how much of the control response was suppressed. High values mean a strong effect, low ones a weak effect.

This assay deals with HCV replicon I389luc-ubi-neo/NS3-3′/ET in ET (Huh-lucubineo-ET) cells; screening for HCV RNA dependent RNA polymerase. The experiment in a line: Replicon Assay (luciferase, ET cell line Huh-lucubineo-ET). It is filed as cell-based. The note with it: Hepatitis C virus; inhibition of replication relative to no compound control; test concentration of 10 μM according to the fitted equation; luciferase 48-72 hours. Summed up: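 Huh-derived ET cells stably carrying an I389luc-ubi-neo/NS3-3′/ET HCV replicon with a luciferase-ubiquitin-neomycin phosphotransferase fusion and adaptive NS3-5B mutations were cultured in DMEM with 10% fetal calf serum and 250 μg/mL G418. Cells were seeded at 0.5-1.0×10^4 cells/well in 96 well plates and given compound after 24 hrs. Luciferase was read 48-72 hours later with Bright-Glo reagents, and replication inhibition was expressed relative to untreated controls.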
`O=C(NC1CC1)c1ccc(-c2csc(NC(=O)C3CCCN3C(=O)OCc3cccnc3)n2)cc1` (stereo not drawn) [Compound 5320, 2-[4-(4-Cyclopropylcarbamoyl-phenyl)-thiazol-2-ylcarbamoyl]-pyrrolidine-1-carboxylic acid pyridin-3-ylmethyl ester] displayed an inhibition at 10 µM of 99.8%.
To `O=C(NC1CC1)c1ccc(-c2csc(NC(=O)[C@@H]3CCCN3C(=O)c3ccncc3)n2)cc1` [Compound 5321, 1-(Pyridine-4-carbonyl)-pyrrolidine-2-carboxylic acid [4-(4-cyclopropylcarbamoyl-phenyl)-thiazol-2-yl]-amide] belongs 91.3%; to `O=C(NC1CCNC1)c1ccc(-c2csc(NC(=O)[C@@H]3CCCN3C(=O)OCc3ccccc3)n2)cc1` (stereo partly drawn) [Compound 5322, 2-{4-[4-(Pyrrolidin-3-ylcarbamoyl)-phenyl]-thiazol-2-ylcarbamoyl}-pyrrolidine-1-carboxylic acid benzyl ester], 100%; to `O=C(NC1CC1)c1ccc(-c2csc(NC(=O)[C@@H]3CCCN3C(=O)Cc3ccc(F)cc3)n2)cc1` [Compound 5323, 1-[2-(4-Fluoro-phenyl)-acetyl]-pyrrolidine-2-carboxylic acid [4-(4-cyclopropylcarbamoyl-phenyl)-thiazol-2-yl]-amide], 81.5%.
To `O=C(NCCCN1CCOCC1)c1ccc(-c2csc(NC(=O)[C@@H]3CCCN3C(=O)OCc3ccccc3)n2)cc1` [Compound 5324, 2-{4-[4-(3-Morpholin-4-yl-propylcarbamoyl)-phenyl]-thiazol-2-ylcarbamoyl}-pyrrolidine-1-carboxylic acid benzyl ester] belongs 100%; to `O=C(NC1CC1)c1ccc(-c2csc(NC(=O)[C@@H]3CCCN3C(=O)Cc3ccccc3)n2)cc1` [Compound 5325, 1-Phenylacetyl-pyrrolidine-2-carboxylic acid [4-(4-cyclopropylcarbamoyl-phenyl)-thiazol-2-yl]-amide], 86.9%; to `CC(C)(C)NC(=O)c1ccc(-c2csc(NC(=O)[C@@H]3CCCN3C(=O)OCc3ccccc3)n2)cc1` [Compound 5326, 2-[4-(4-tert-Butylcarbamoyl-phenyl)-thiazol-2-ylcarbamoyl]-pyrrolidine-1-carboxylic acid benzyl ester], 100%.
Consider `O=C(NC1CC1)c1ccc(-c2csc(NC(=O)[C@@H]3CSCN3C(=O)OCc3ccccc3)n2)cc1` [Compound 5327, 4-[4-(4-Cyclopropylcarbamoyl-phenyl)-thiazol-2-ylcarbamoyl]-thiazolidine-3-carboxylic acid benzyl ester], for which the inhibition at 10 µM was 100%.
In turn, `CN(C(=O)c1ccc(-c2csc(NC(=O)[C@@H]3CCCN3C(=O)OCc3ccccc3)n2)cc1)c1ccccc1` [Compound 5328, 2-{4-[4-(Methyl-phenyl-carbamoyl)-phenyl]-thiazol-2-ylcarbamoyl}-pyrrolidine-1-carboxylic acid benzyl ester] returned an inhibition at 10 µM of 97.3%.
As for `O=C(Nc1nc(-c2ccc(NS(=O)(=O)C3CC3)cc2)cs1)[C@@H]1CCCN1C(=O)OCc1ccccc1` [Compound 5329, 2-[4-(4-Cyclopropanesulfonylamino-phenyl)-thiazol-2-ylcarbamoyl]-pyrrolidine-1-carboxylic acid benzyl ester], the figure is 97%; as for `O=C(Nc1nc(-c2ccc(NCC3CC3)cc2)cs1)[C@@H]1CCCN1C(=O)OCc1ccccc1` [Compound 5330, 2-{4-[4-(Cyclopropylmethyl-amino)-phenyl]-thiazol-2-ylcarbamoyl}-pyrrolidine-1-carboxylic acid benzyl ester], 98.8%.
To `CN(C(=O)c1ccc(-c2csc(NC(=O)[C@@H]3CCCN3C(=O)OCc3ccccc3)n2)cc1)C1CCCCC1` [Compound 5332, 2-{4-[4-(Cyclohexyl-methyl-carbamoyl)-phenyl]-thiazol-2-ylcarbamoyl}-pyrrolidine-1-carboxylic acid benzyl ester] belongs 99.7%.
As for `CC(C)(C)OC(=O)N1CCS[C@H]1C(=O)Nc1nc(-c2ccc(C(=O)NC3CC3)cc2)cs1` [Compound 5334, 2-[4-(4-Cyclopropylcarbamoyl-phenyl)-thiazol-2-ylcarbamoyl]-thiazolidine-3-carboxylic acid tert-butyl ester], the figure is 99.9%; as for `O=C(Nc1nc(-c2cccc(NCC3CC3)c2)cs1)[C@@H]1CCCN1C(=O)OCc1ccccc1` [Compound 5335, 2-{4-[3-(Cyclopropylmethyl-amino)-phenyl]-thiazol-2-ylcarbamoyl}-pyrrolidine-1-carboxylic acid benzyl ester], 92.5%; as for `CC(C)(C)OC(=O)N1CCC(NC(=O)c2ccc(-c3csc(NC(=O)[C@@H]4CCCN4C(=O)OCc4ccccc4)n3)cc2)CC1` [Compound 5336, 4-(4-{2-[(1-Benzyloxycarbonyl-pyrrolidine-2-carbonyl)-amino]-thiazol-4-yl}-benzoylamino)-piperidine-1-carboxylic acid tert-butyl ester], 96.3%.
The compound `O=C(NC1CNC1)c1ccc(-c2csc(NC(=O)[C@@H]3CCCN3C(=O)OCc3ccccc3)n2)cc1` [Compound 5337, 2-{4-[4-(Azetidin-3-ylcarbamoyl)-phenyl]-thiazol-2-ylcarbamoyl}-pyrrolidine-1-carboxylic acid benzyl ester] gave an inhibition at 10 µM of 100%.
To `O=C(Nc1nc(-c2cccnc2)cs1)[C@@H]1CCCN1C(=O)OCc1ccccc1` [Compound 5338, 2-(4-Pyridin-3-yl-thiazol-2-ylcarbamoyl)-pyrrolidine-1-carboxylic acid benzyl ester] belongs 75.2%; to `O=C(NCCN1CCOCC1)c1ccc(-c2csc(NC(=O)C3CCCN3C(=O)OCc3ccccc3)n2)cc1` (stereo not drawn) [Compound 5339, 2-{4-[4-(2-Morpholin-4-yl-ethylcarbamoyl)-phenyl]-thiazol-2-ylcarbamoyl}-pyrrolidine-1-carboxylic acid benzyl ester], 100%; to `O=C(NC1CC1)c1ccc(-c2csc(NC(=O)[C@@H]3CCCN3C(=O)NCc3ccccc3)n2)cc1` [Compound 5342, Pyrrolidine-1,2-dicarboxylic acid 1-benzylamide 2-{[4-(4-cyclopropylcarbamoyl-phenyl)-thiazol-2-yl]-amide}], 95.2%.
As for `O=C(NC1CCCNC1)c1ccc(-c2csc(NC(=O)C3CCCN3C(=O)OCc3ccccc3)n2)cc1` (stereo not drawn) [Compound 5343, 2-{4-[4-(Piperidin-3-ylcarbamoyl)-phenyl]-thiazol-2-ylcarbamoyl}-pyrrolidine-1-carboxylic acid benzyl ester], the figure is 100%; as for `O=C(Nc1nc(-c2ccco2)cs1)[C@@H]1CCCN1C(=O)OCc1ccccc1` [Compound 5347, 2-(4-Furan-2-yl-thiazol-2-ylcarbamoyl)-pyrrolidine-1-carboxylic acid benzyl ester], 94.7%; as for `O=C(NC1CC1)c1ccc(-c2csc(NC(=O)[C@H]3CCCN3C(=O)OCc3ccccc3)n2)cc1` [Compound 5349, 2-[4-(4-Cyclopropylcarbamoyl-phenyl)-thiazol-2-ylcarbamoyl]-pyrrolidine-1-carboxylic acid benzyl ester], 28.6%.
As for `O=C(NC1CC1)c1ccc(-c2csc(NC(=O)[C@@H]3SCCN3C(=O)OCc3ccccc3)n2)cc1` [Compound 5350, 2-[4-(4-Cyclopropylcarbamoyl-phenyl)-thiazol-2-ylcarbamoyl]-thiazolidine-3-carboxylic acid benzyl ester], the figure is 100%; as for `O=C(NC1CC1)c1ccc(-c2csc(NC(=O)[C@@H]3CCCN3C(=O)OCc3ccccc3)n2)o1` [Compound 5351, 2-[4-(5-Cyclopropylcarbamoyl-furan-2-yl)-thiazol-2-ylcarbamoyl]-pyrrolidine-1-carboxylic acid benzyl ester], 22.3%.
`O=C(NC1CC1)c1ccc(-c2cnc(NC(=O)[C@@H]3CCCN3C(=O)OCc3ccccc3)s2)cc1` [Compound 5352, 2-[5-(4-Cyclopropylcarbamoyl-phenyl)-thiazol-2-ylcarbamoyl]-pyrrolidine-1-carboxylic acid benzyl ester] registered an inhibition at 10 µM of 7.07%.
As for `O=C(O)c1ccc(-c2cnc(NC(=O)[C@@H]3CCCN3C(=O)OCc3ccccc3)s2)cc1` [Compound 5353, 2-[5-(4-Carboxy-phenyl)-thiazol-2-ylcarbamoyl]-pyrrolidine-1-carboxylic acid benzyl ester], the figure is 50.2%; as for `O=C(Nc1nc(-c2ccc(S(=O)(=O)NC3CCCC3)cc2)cs1)C1CCCN1C(=O)OCc1ccccc1` (stereo not drawn) [Compound 5354, 2-[4-(4-Cyclopentylsulfamoyl-phenyl)-thiazol-2-ylcarbamoyl]-pyrrolidine-1-carboxylic acid benzyl ester], 87.5%; as for `O=C(NC1CC1)c1ccc(-c2csc(NC(=O)[C@@H]3CCCN3C(=O)OCc3ccccc3)n2)nc1` [Compound 5355, 2-[4-(5-Cyclopropylcarbamoyl-pyridin-2-yl)-thiazol-2-ylcarbamoyl]-pyrrolidine-1-carboxylic acid benzyl ester], 99.9%.
`O=C(NC1CCNCC1)c1ccc(-c2csc(NC(=O)C3CCCN3C(=O)OCc3ccccc3)n2)cc1` (stereo not drawn) [Compound 5356, 2-{4-[4-(Piperidin-4-ylcarbamoyl)-phenyl]-thiazol-2-ylcarbamoyl}-pyrrolidine-1-carboxylic acid benzyl ester]: at 10 µM the inhibition was 100%.
To `O=C(NC1CC1)c1ccc(-c2csc(NC(=O)C3CCCN3C(=O)CCc3ccccc3)n2)cc1` (stereo not drawn) [Compound 5358, 1-(3-Phenyl-propionyl)-pyrrolidine-2-carboxylic acid [4-(4-cyclopropylcarbamoyl-phenyl)-thiazol-2-yl]-amide] belongs 84.8%.
